From US4560690A, “2-(N-substituted guanidino)-4-hetero-arylthiazole antiulcer agents” (Pfizer Inc., priority 1984, dated 1985)

What was measured:
[1] = target: T1, histamine-H2 receptor (Cavia porcellus, UniProt P47747); test: Histamine-H2 antagonist activity in isolated guinea pig right atria (pA2); type: cell-based, Guinea pigs; conditions: Krebs-Henseleit buffer pH 7.4, 32°±2° C., histamine dose-response, * tested as the dihydrobromide salt, read-out: pA2 (apparent dissociation constant of the H2-receptor antagonist) (converted)
T1 construct: the heart removed and the right atria dissected free; from tissue; host or cells: guinea pig right atria (isolated, spontaneously beating)
T1 sequence (P47747 whole entry): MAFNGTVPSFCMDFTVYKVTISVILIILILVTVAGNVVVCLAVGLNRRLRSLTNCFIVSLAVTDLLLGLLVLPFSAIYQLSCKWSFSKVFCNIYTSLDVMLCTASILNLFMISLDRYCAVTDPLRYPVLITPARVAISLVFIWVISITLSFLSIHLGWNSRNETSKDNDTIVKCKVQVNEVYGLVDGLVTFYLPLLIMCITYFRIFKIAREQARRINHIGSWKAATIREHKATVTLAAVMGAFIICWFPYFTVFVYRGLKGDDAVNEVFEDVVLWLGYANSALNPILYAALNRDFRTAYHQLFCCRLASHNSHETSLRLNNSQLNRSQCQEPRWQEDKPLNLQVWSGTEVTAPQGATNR
Protocol: The histamine-H2 antagonist activity of compounds of the present invention was determined by the following procedure:
Guinea pigs are killed rapidly with a blow to the head, the heart removed and the right atria dissected free. Atria are suspended, isometrically, in a temperature-controlled (32°±2° C.) tissue bath (10 ml) containing oxygenated (95% O2; 5% CO2) Krebs-Henseleit buffer (pH 7.4) and are allowed to stabilize approximately one hour during which time the tissue bath is flushed several times. Individual atrial contractions are followed with a force-displacement transducer connected to a cardiotachometer and Grass polygraph recorder. After obtaining a dose-response curve to histamine, the bath containing each atrium is flushed several times with fresh buffer and the atria reequilibrated to basal rates. Following the return to basal rate, test compounds are added at selected final concentrations and the histamine dose-response curve is again determined in the presence of antagonist. Results are expressed as dose-ratios, the ratio of histamine concentrations required to produce one-half of maximal stimulation in the presence and absence of antagonist, and the apparent dissociation constant of the H2 -receptor antagonist pA2, is determined.

[2] = test system: gastric acid secretion (pentagastrin-stimulated acid output from the gastric pouch); test: Gastric acid antisecretory activity in pentagastrin-stimulated conscious Heidenhain pouch dogs; type: in vivo; conditions: Canis lupus familiaris; for inhibition in vivo at up to 2 mg/kg: at the same (oral 2 mg/kg) or a lower dose; for inhibition in vivo at 2 mg/kg: oral dose of 2 mg/kg, Heidenhain pouch dogs, pentagastrin
Protocol: The gastric acid antisecretory activity of compounds of the present invention was determined in overnight fasted, conscious Heidenhain pouch dogs. Pentagastrin (Pentavolon-Ayerst) was used to stimulate acid output by continuous infusion into a superficial leg vein at doses earlier determined to stimulate near maximal acid output from the gastric pouch. Gastric juice was collected at 30 minute intervals following the start of a pentagastrin infusion and measured to the nearest 0.1 ml. Ten collections were taken for each dog during an experiment. Acid concentration was determined by tritrating 1.0 ml of gastric juice to pH 7.4 with 0.1N sodium hydroxide using an Autoburette and a glass electrode pH meter (Radiometer).
Drug or vehicle was given intravenously or orally 90 minutes following the start of the pentagastrin infusion, at a dose of 2 mg/kg or less. Gastric acid antisecretory effects were calculated by comparing the lowest acid output after drug administration with the mean acid output immediately before drug.

[3] = test system: ethanol-induced gastric ulceration; test: Inhibition of ethanol-induced ulceration in rats; type: in vivo, male rats; conditions: for cytoprotection (inhibition of ethanol-induced ulceration): same dosage, 30 mg/kg oral
Protocol: The antiulcer activity of the products of this invention was also determined by an ethanol-induced rat ulcer assay. In this test, overnight fasted male rats are given drug (at 30 or 3 mg/kg) or water orally fifteen minutes prior to an orally administered dose of absolute ethanol (1.0 ml). One hour after the ethanol challenge the animals (8/group) are killed and the stomachs examined for the presence of lesions. After sacrifice the abdomen is opened and a locking hemostat placed at the pylorus. Six ml of a 4% solution of formaldehyde was injected into the stomach with a gastric feeding tube and a second locking hemostat was used to seal the esophagus. The stomach was removed, opened along the greater curvature and examined for ulceration.
The scoring system used to quantitate the ethanol-induced lesions is given below.
For each group of animals an ulcer index is calculated as follows:
Ulceration Index=(the sum of the scores of the group)×(the sum of the number of ulcers in the group)×(the fraction of the group having any incidence of ulceration).
The percentage inhibition of ulcers is calculated as follows:
% Inhibition=100×[(ulcer index controls)-(ulcer index
drug-treated)].div.(ulcer index controls).

[4] = * tested as the dihydrobromide salt
[5] = oral dose of 3 mg/kg, * tested as the dihydrobromide salt
[6] = oral dose of 30 mg/kg, fifteen minutes prior to absolute ethanol

Row | SMILES | Kb [1] [nM] | inhibition in vivo at 0.1 mg/kg ([2]; iv, dose of 0.1 mg/kg (i.v.), * tested as the dihydrobromide salt) [%] | inhibition in vivo at up to 2 mg/kg [2, 4] [%] | inhibition of ethanol-induced ulceration [3, 5] | cytoprotection (inhibition of ethanol-induced ulceration) [3] [%] | inhibition of ethanol-induced ulceration [3, 6] | inhibition in vivo at 2 mg/kg [2] [%]
1 | CCCCCCNC(N)=Nc1nc(-c2c[nH]c(C)n2)cs1 [Example 5*] | ≤ 63.1 | 58 | ≥ 64 |  |  |  | 
2 | Cc1nc(-c2csc(NC(=N)NCc3ccccc3)n2)c[nH]1 [Example 6a, N-[4-(2-methylimidazol-4-yl)thiazol-2-yl]-N'-benzylguanidine] | ≤ 63.1 |  |  |  |  |  | 
3 | CCCCCCC(C)NC(=N)Nc1nc(-c2c[nH]c(C)n2)cs1 (stereo not shown) [Example 6b, N-[4-(2-methylimidazol-4-yl)thiazol-2-yl]-N'-2-octylguanidine] | ≤ 63.1 |  | ≥ 64 | at least 40% |  |  | 
4 | CCCCCNC(N)=Nc1nc(-c2c[nH]c(C)n2)cs1 [Example 6c] | ≤ 126 |  | ≥ 64 |  | ≥ 90 |  | 
5 | CCCCCCCNC(N)=Nc1nc(-c2c[nH]c(C)n2)cs1 [Example 6f] | ≤ 63.1 |  |  |  | ≥ 90 | at least 77% | ≥ 24
6 | CCCCCCCCNC(N)=Nc1nc(-c2c[nH]c(C)n2)cs1 [Example 6g] | ≤ 126 |  |  |  |  |  | ≥ 24
7 | CCCCCCC(C)NC(=N)Nc1nc(-c2c[nH]c(C)n2)cs1 (stereo not shown) [Example 6j, N-[4-(2-methylimidazol-4-yl)thiazol-2-yl]-N'-2-octylguanidine] |  |  |  |  |  | at least 77% | 
8 | Cc1nc(-c2csc(NC(=N)NCc3ccccc3)n2)c[nH]1 [Example 6l, N-[4-(2-methylimidazol-4-yl)thiazol-2-yl]-N'-benzylguanidine] |  |  | ≥ 64 | at least 40% |  | at least 77% | 
9 | Cc1nc(-c2csc(N=C(N)NCCc3ccccc3)n2)c[nH]1 [Example 6m] | ≤ 63.1 |  | ≥ 64 |  |  | at least 77% | 
10 | Cc1nc(-c2csc(N=C(N)NCCCc3ccccc3)n2)c[nH]1 [Example 6n] | ≤ 63.1 |  |  |  |  |  | ≥ 24
11 | Cc1nc(-c2csc(N=C(N)NCCCCc3ccccc3)n2)c[nH]1 [Example 6o] |  |  |  |  | ≥ 90 | at least 77% | ≥ 24
